These results are taken from publication PMC6882468 (Journal of Enzyme Inhibition and Medicinal Chemistry, 2019).

For experiment [1], the system named is NF-κB activation in RAW264.7 cells. As to the kind of experiment: Western blot of LPS-induced NF-κB activation. The note with it: RAW264.7, 2-h pre-treatment before LPS stimulation. The class given is cell-based, Murine. On the procedure: The cell in 96-well plates were treated as described above and then stimulated with LPS (200 ng/mL) for 24 h. The cells were harvested and lysed in an extraction lysis buffer (Beyotime Biotechnology, Shanghai, China) containing protease inhibitors. The protein concentration was determined using a BCA protein assay kit (Thermo Scientific, 23227). The whole cell lysates were separated by 10% sodium dodecyl sulphate-polyacrylamide gel electrophoresis and transferred to a nitrocellulose membrane. Each membrane was incubated with Tris-buffered saline (pH 7.6, containing 0.05% Tween-20 and 5% non-fat milk). The nitrocellulose membrane was incubated with the primary antibody against p-JNK1/2, JNK1/2, p-p38, p38, p-ERK1/2, ERK1/2, IκBa, NF-κB p65, COX-2, iNOS or β-Actin (Abcam, Cambridge, UK). Immunoreactive bands were detected by incubating with horseradish peroxidase-conjugated secondary antibodies, and visualised using enhanced chemiluminescence reagents (Bio-Rad, Hercules, CA).
Figure 5. Compound 6n inhibited LPS-induced NF-κB activation in RAW264.7 cells. […] The levels of NF-κB p65, IκB, and their phosphorylated forms were analysed using western blot.

Experiment [2] relates to DNFB-induced mouse model of allergic contact dermatitis. Nature of the experiment: DNFB-induced mouse model of allergic contact dermatitis (ear swelling). The class given is in vivo, Male ICR mice. The note with it: for Swelling degree / Inhibition (%) of ear swelling: mice; for Swelling degree: Mean ± SD, n = 6; for Inhibition (%) of ear swelling: vs model group. On the procedure: Male ICR mice (20 ± 2 g) were obtained from the Experimental Animal Centre of Anhui Medical University (Hefei, China). The mice reared in a pathogen-free setting (23 ± 2 °C, 55 ± 5% humidity) with free access to water and pelleted food throughout the experimental cycle. All experimental procedures performed in accordance with guide for the Care and Use of Laboratory Animals (National Research Council, 1996) and were approved by the Experimental Animal Ethics Committee of Anhui University of Chinese Medicine (Hefei, China). After 7 days acclimatisation, the mice were randomly divided into control group, ACD model group, dexamethasone positive control group and 20 compound groups, six in each group. The control group and the model group were given the same dose of the vehicle, the positive control group was given dexamethasone 0.5 mg/kg, and the test compound groups were given compound 5 mg/kg, all of which were given by intragastric administration and were administered once a day for 6 days. Except for the control group, the 50 µL of 1% DNFB (in acetone/olive oil 4:1) was administered to the stripped epidermis, and repeated the next day. After 6 days of drug treatment, 10 µL of 1% DNFB acetone olive oil solution was applied on both sides of the right ear to stimulate inflammation, and equivalent acetone olive oil solution was applied on the left ear for comparison. […] Calculation was carried out according to the following equations. Swelling degree (mg) = MR – ML Inhibitory rate of ear swelling (%)=((MR – ML) model – (MR – ML) treated)/(MR – ML) model ×100% MR=Average weight of the right ear slices;ML= Average weight of the left ear slices […] Dexamethasone (DEX) at a p.o. dose of 0.5 mg/kg was employed as the positive control. After the mice were sacrificed, the swelling degree and inhibition rate were calculated by weighing the same part of both ears.

[3] abbreviates: 5 mg/kg intragastric once a day for 6 days, ear slices weighed 24 h after DNFB challenge.
Setting [4] is: 5 mg/kg intragastric once a day for 6 days.
Setting [5] is: positive control 0.5 mg/kg intragastric once a day for 6 days.

In the case of `Cc1ccc(S(=O)(=O)/C=C/C#N)cc1` [Bay 11e7082, reference compound], in experiment [1], the “LPS-induced IκB phosphorylation” value was “markedly decreased”, the “accumulation of NF-κB p65 subunit in the nucleus” value was “lowered” and the “cytosolic IκB” value is on record as “increased”.

As for `CC(=O)c1ccccc1C(=O)N1CCN(Cc2ccc(Cl)cc2)CC1` [Compound 6a, 1–(2-(4–(4-Chlorobenzyl)piperazine-1-carbonyl)phenyl)ethan-1-one], in experiment [2] (setting [3]), the “Swelling degree” value was 11.9 ± 3.7 mg. The “Inhibition (%) of ear swelling” value in experiment [2] (setting [4]) came out at 27.4%.

Turning to `COc1ccc(CN2CCN(C(=O)c3ccccc3C(C)=O)CC2)cc1` [Compound 6b, 1–(2-(4–(4-Methoxybenzyl)piperazine-1-carbonyl)phenyl)ethan-1-one], in experiment [2] (setting [3]), the “Swelling degree” value is reported as 12.0 ± 3.4 mg. Also, in experiment [2] (setting [4]), the “Inhibition (%) of ear swelling” value was 26.8%.

Turning to `CC(=O)c1ccccc1C(=O)N1CCN(Cc2ccc(C#N)cc2)CC1` [Compound 6c, 4-((4–(2-Acetylbenzoyl)piperazin-1-yl)methyl)benzonitrile], the “Swelling degree” value in experiment [2] (setting [3]) is 11.3 ± 4.0 mg. Moreover, in experiment [2] (setting [4]), the “Inhibition (%) of ear swelling” value worked out at 31.1%.

In the case of `CC(=O)c1ccccc1C(=O)N1CCN(Cc2ccc(C(F)(F)F)cc2)CC1` [Compound 6d, 1–(2-(4–(4-(Trifluoromethyl)benzyl)piperazine-1-carbonyl)phenyl)ethan-1-one], in experiment [2] (setting [3]), the “Swelling degree” value was 12.5 ± 3.4 mg. Moreover, the “Inhibition (%) of ear swelling” value in experiment [2] (setting [4]) came to 23.8%.

For `CC(=O)c1ccccc1C(=O)N1CCN(Cc2ccc([N+](=O)[O-])cc2)CC1` [Compound 6e, 1–(2-(4–(4-Nitrobenzyl)piperazine-1-carbonyl)phenyl)ethan-1-one], in experiment [2] (setting [3]), the “Swelling degree” value turned out to be 13.0 ± 3.3 mg. In addition, in experiment [2] (setting [4]), the “Inhibition (%) of ear swelling” value amounted to 20.7%.

For the molecule `CC(=O)c1ccccc1C(=O)N1CCN(Cc2ccc(Cl)cc2Cl)CC1` [Compound 6g, 1–(2-(4–(2,4-Dichlorobenzyl)piperazine-1-carbonyl)phenyl)ethan-1-one], the “Swelling degree” value in experiment [2] (setting [3]) was found to be 12.9 ± 2.6 mg. The “Inhibition (%) of ear swelling” value in experiment [2] (setting [4]) came to 21.3%.

Regarding `CC(=O)c1ccccc1C(=O)N1CCN(Cc2ccccc2Cl)CC1` [Compound 6h, 1–(2-(4–(2-Chlorobenzyl)piperazine-1-carbonyl)phenyl)ethan-1-one], the “Swelling degree” value in experiment [2] (setting [3]) stood at 12.8 ± 4.1 mg. Further, the “Inhibition (%) of ear swelling” value in experiment [2] (setting [4]) amounted to 21.9%.

As to `CC(=O)c1ccccc1C(=O)N1CCN(Cc2cccc(Cl)c2)CC1` [Compound 6i, 1–(2-(4–(3-Chlorobenzyl)piperazine-1-carbonyl)phenyl)ethan-1-one], the “Swelling degree” value in experiment [2] (setting [3]) is recorded as 12.0 ± 3.0 mg. Further, the “Inhibition (%) of ear swelling” value in experiment [2] (setting [4]) came out at 26.8%.

As to `CC(=O)c1ccccc1C(=O)N1CCN(Cc2ccccc2)CC1` [Compound 6k, 1–(2-(4-Benzylpiperazine-1-carbonyl)phenyl)ethan-1-one], in experiment [2] (setting [3]), the “Swelling degree” value came out at 13.0 ± 3.5 mg. The “Inhibition (%) of ear swelling” value in experiment [2] (setting [4]) was determined as 20.7%.

Take `CC(=O)c1ccccc1C(=O)N1CCN(Cc2ccc(C)cc2)CC1` [Compound 6l, 1–(2-(4–(4-Methylbenzyl)piperazine-1-carbonyl)phenyl)ethan-1-one]: in experiment [2] (setting [3]), the “Swelling degree” value is listed as 11.4 ± 3.2 mg. In experiment [2] (setting [4]), the “Inhibition (%) of ear swelling” value amounted to 30.5%.

For the molecule `COc1ccc(CN2CCN(C(=O)c3ccccc3C(C)=O)CC2)c(OC)c1` [Compound 6m, 1–(2-(4–(2,4-Dimethoxybenzyl)piperazine-1-carbonyl)phenyl)ethan-1-one], the “Swelling degree” value in experiment [2] (setting [3]) stood at 11.6 ± 2.4 mg. The “Inhibition (%) of ear swelling” value in experiment [2] (setting [4]) came to 29.3%.

Regarding `COc1cccc(CN2CCN(C(=O)c3ccccc3C(C)=O)CC2)c1` [Compound 6o, 1–(2-(4–(3-Methoxybenzyl)piperazine-1-carbonyl)phenyl)ethan-1-one], the “Swelling degree” value in experiment [2] (setting [3]) was 13.0 ± 4.4 mg. In addition, the “Inhibition (%) of ear swelling” value in experiment [2] (setting [4]) was 20.7%.

With `CC(=O)c1ccccc1C(=O)N1CCN(Cc2ccc3c(c2)OCO3)CC1` [Compound 6p, 1–(2-(4-(Benzo[d][1,3]dioxol-5-ylmethyl)piperazine-1-carbonyl)phenyl)ethan-1-one], in experiment [2] (setting [3]), the “Swelling degree” value is 11.0 ± 3.2 mg. In experiment [2] (setting [4]), the “Inhibition (%) of ear swelling” value turned out to be 32.9%. For the same molecule, the “in vivo inhibitory activity, in words” value in experiment [2] (p.o. 5 mg/kg, p < 0.01) is on record as “significant inhibitory activity”.

With `CC(=O)c1ccccc1C(=O)N1CCN(Cc2ccc3c(c2)OCCO3)CC1` [Compound 6q, 1–(2-(4-((2,3-Dihydrobenzo[b][1,4]dioxin-6-yl)methyl)piperazine-1-carbonyl)phenyl)ethan-1-one], in experiment [2] (setting [3]), the “Swelling degree” value was 13.3 ± 2.6 mg. In experiment [2] (setting [4]), the “Inhibition (%) of ear swelling” value is listed as 18.9%.

`CC(=O)c1ccccc1C(=O)N1CCN(Cc2nc(C)c(C)nc2C)CC1` [Compound 6r, 1–(2-(4-((3,5,6-Trimethylpyrazin-2-yl)methyl)piperazine-1-carbonyl)phenyl)ethan-1-one]: the “Swelling degree” value in experiment [2] (setting [3]) is recorded as 10.8 ± 3.5 mg. Besides, in experiment [2] (setting [4]), the “Inhibition (%) of ear swelling” value amounted to 34.1%.

Take `CC(=O)c1ccccc1C(=O)N1CCN(Cc2ccncc2)CC1` [Compound 6s, 1–(2-(4-(Pyridin-4-ylmethyl)piperazine-1-carbonyl)phenyl)ethan-1-one]: in experiment [2] (setting [3]), the “Swelling degree” value was determined as 12.9 ± 3.4 mg. For the same molecule, the “Inhibition (%) of ear swelling” value in experiment [2] (setting [4]) worked out at 21.3%.

As for `C[C@@H]1C[C@H]2[C@@H]3CCC4=CC(=O)C=C[C@]4(C)[C@@]3(F)[C@@H](O)C[C@]2(C)[C@@]1(O)C(=O)CO` [DEX, Dexamethasone, reference compound], in experiment [2] (setting [5]), the “Inhibition (%) of ear swelling” value is given as 51.8% and the “Swelling degree” value stood at 7.9 ± 3.0 mg.
